Laboratory results as given in PubChem BioAssay (NCI).
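All cell lines were grown in 96-well plates and treated with compound for 48 hours. TGI denotes the concentration required for complete inhibition of growth.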

Columns and labels:
Assay in all cases: growth of human tumour cells (NCI), 48 h
KM20L2 colon = system: KM20L2 colon
NCI-H226 lung = system: NCI-H226 lung
DLD-1 colon = system: DLD-1 colon
HOP-92 NSCLC = system: HOP-92 NSCLC
SK-OV-3 ovarian = system: SK-OV-3 ovarian
NCI-H460 lung = system: NCI-H460 lung
SF-268 CNS = system: SF-268 CNS
SK-MEL-28 melanoma = system: SK-MEL-28 melanoma
MDA-MB-435 = system: MDA-MB-435
DU-145 prostate = system: DU-145 prostate
HS 578T breast = system: HS 578T breast

With `CC1(C)O[C@@H](C[C@]2(C#N)C[C@H](CCl)OC(C)(C)O2)C[C@@H](C#N)O1` the TGI (KM20L2 colon) was greater than 100 µM, the TGI (NCI-H226 lung) was greater than 100 µM and the TGI (DLD-1 colon) was greater than 100 µM. The TGI (HOP-92 NSCLC) was greater than 100 µM, the TGI (SK-OV-3 ovarian) was greater than 100 µM and the TGI (NCI-H460 lung) was greater than 100 µM. The TGI (SF-268 CNS) was greater than 100 µM and the TGI (SK-MEL-28 melanoma) was greater than 100 µM.
`[N-]=[N+]=NCC(O)Cn1cnc2c(NC(=O)c3ccccc3)ncnc21` (centres undefined) showed a TGI (KM20L2 colon) greater than 100 µM, a TGI (NCI-H226 lung) greater than 100 µM and a TGI (DLD-1 colon) greater than 100 µM. The TGI (HOP-92 NSCLC) was greater than 100 µM, the TGI (NCI-H460 lung) was greater than 100 µM and the TGI (SF-268 CNS) was greater than 100 µM. It also gave a TGI (SK-MEL-28 melanoma) greater than 100 µM.
`CC(CNC(N)=O)NC(N)=O` (centres undefined) gave a TGI (NCI-H226 lung) greater than 100 µM, a TGI (MDA-MB-435) greater than 100 µM and a TGI (HOP-92 NSCLC) greater than 100 µM. For the same molecule, the TGI (SK-OV-3 ovarian) was greater than 100 µM, the TGI (NCI-H460 lung) was greater than 100 µM and the TGI (SF-268 CNS) was greater than 100 µM. For the same molecule, the TGI (SK-MEL-28 melanoma) was greater than 100 µM, the TGI (DU-145 prostate) was greater than 100 µM and the TGI (HS 578T breast) was greater than 100 µM.
`NCCSCCC(=O)O` gave a TGI (NCI-H226 lung) greater than 100 µM, a TGI (MDA-MB-435) greater than 100 µM and a TGI (HOP-92 NSCLC) greater than 100 µM. For the same molecule, the TGI (SK-OV-3 ovarian) was greater than 100 µM, the TGI (NCI-H460 lung) was greater than 37.9 µM and the TGI (SF-268 CNS) was greater than 100 µM. The TGI (SK-MEL-28 melanoma) was greater than 71.8 µM, the TGI (DU-145 prostate) was greater than 100 µM and the TGI (HS 578T breast) was greater than 100 µM.
Work on `COC1=CC(=O)N(C)C(O)C1(C#N)OC1OC(CO)C(O)C(O)C1O` (centres undefined) yielded a TGI (NCI-H226 lung) greater than 100 µM, a TGI (MDA-MB-435) greater than 100 µM and a TGI (HOP-92 NSCLC) greater than 100 µM. For the same molecule, the TGI (SK-OV-3 ovarian) was greater than 100 µM, the TGI (NCI-H460 lung) was greater than 100 µM and the TGI (SF-268 CNS) was greater than 100 µM. The TGI (SK-MEL-28 melanoma) was greater than 100 µM, the TGI (DU-145 prostate) was greater than 100 µM and the TGI (HS 578T breast) was greater than 100 µM.
Work on `COc1cccc(C2c3cc4c(cc3OC(Nc3ccccc3)C2C)OCO4)c1O` (centres undefined) yielded a TGI (NCI-H226 lung) of 33.2 µM, a TGI (MDA-MB-435) of 5.66 µM and a TGI (HOP-92 NSCLC) of 9.93 µM. For the same molecule, the TGI (SK-OV-3 ovarian) was greater than 71.6 µM, the TGI (NCI-H460 lung) was 26.4 µM and the TGI (SF-268 CNS) was greater than 55.6 µM. The TGI (SK-MEL-28 melanoma) was 27 µM, the TGI (DU-145 prostate) was greater than 53.9 µM and the TGI (HS 578T breast) was greater than 62.6 µM.
`COc1cc(N(CCC#N)CCC#N)ccc1/C=N\NC(=O)c1ccc(C)cc1` gave a TGI (NCI-H226 lung) greater than 100 µM, a TGI (MDA-MB-435) greater than 100 µM and a TGI (HOP-92 NSCLC) greater than 100 µM. It also gave a TGI (SK-OV-3 ovarian) greater than 100 µM, a TGI (NCI-H460 lung) greater than 100 µM and a TGI (SF-268 CNS) greater than 100 µM. The TGI (SK-MEL-28 melanoma) was greater than 100 µM, the TGI (DU-145 prostate) was greater than 100 µM and the TGI (HS 578T breast) was greater than 100 µM.
Molecule `CC(=O)OC[C@H]1On2nnnc2[C@H](OC(C)=O)[C@@H](OC(C)=O)[C@@H]1OC(C)=O` has a TGI (NCI-H226 lung) greater than 100 µM, a TGI (MDA-MB-435) greater than 100 µM and a TGI (HOP-92 NSCLC) greater than 100 µM. For the same molecule, the TGI (SK-OV-3 ovarian) was greater than 100 µM, the TGI (NCI-H460 lung) was greater than 100 µM and the TGI (SF-268 CNS) was greater than 100 µM. For the same molecule, the TGI (SK-MEL-28 melanoma) was greater than 100 µM, the TGI (DU-145 prostate) was greater than 100 µM and the TGI (HS 578T breast) was greater than 100 µM.
`Cc1ccc(S(=O)(=O)NC(=O)C2=C3SCCN3C(=O)N(S(=O)(=O)c3ccc(C)cc3)C2c2ccccc2)cc1` (centres undefined) gave a TGI (NCI-H226 lung) greater than 100 µM, a TGI (MDA-MB-435) of 61 µM and a TGI (HOP-92 NSCLC) greater than 100 µM. For the same molecule, the TGI (SK-OV-3 ovarian) was 66.8 µM, the TGI (NCI-H460 lung) was greater than 100 µM and the TGI (SF-268 CNS) was greater than 100 µM. The TGI (SK-MEL-28 melanoma) was greater than 100 µM, the TGI (DU-145 prostate) was greater than 100 µM and the TGI (HS 578T breast) was greater than 100 µM.
`CC(C)=CCC[C@@H](C)C1=C(O)C(Nc2ccccc2I)=C(C)C(=O)C1=O` showed a TGI (NCI-H226 lung) of 18.4 µM, a TGI (MDA-MB-435) greater than 75 µM and a TGI (HOP-92 NSCLC) of 50.2 µM. The TGI (SK-OV-3 ovarian) was 61.5 µM, the TGI (NCI-H460 lung) was greater than 75 µM and the TGI (SF-268 CNS) was greater than 69.3 µM. For the same molecule, the TGI (SK-MEL-28 melanoma) was greater than 75 µM, the TGI (DU-145 prostate) was 69.2 µM and the TGI (HS 578T breast) was 47.4 µM.
`COc1cc(Oc2nc3cc(F)c(F)cc3nc2-c2ccccc2)cc(OC)c1OC` showed a TGI (NCI-H226 lung) greater than 100 µM, a TGI (MDA-MB-435) greater than 100 µM and a TGI (HOP-92 NSCLC) greater than 100 µM. For the same molecule, the TGI (SK-OV-3 ovarian) was greater than 100 µM, the TGI (NCI-H460 lung) was greater than 100 µM and the TGI (SF-268 CNS) was greater than 100 µM. For the same molecule, the TGI (SK-MEL-28 melanoma) was greater than 100 µM, the TGI (DU-145 prostate) was greater than 100 µM and the TGI (HS 578T breast) was greater than 100 µM.
`O=C1NC(Cc2ccc(O)cc2)C(=O)NC1Cc1ccc(O)cc1` (centres undefined) was tested, and the TGI (NCI-H226 lung) was greater than 100 µM, the TGI (MDA-MB-435) was greater than 100 µM and the TGI (HOP-92 NSCLC) was greater than 100 µM. It also gave a TGI (SK-OV-3 ovarian) greater than 100 µM, a TGI (NCI-H460 lung) greater than 100 µM and a TGI (SF-268 CNS) greater than 100 µM. It also gave a TGI (SK-MEL-28 melanoma) greater than 100 µM, a TGI (DU-145 prostate) greater than 100 µM and a TGI (HS 578T breast) greater than 100 µM.
Work on `CC1CCC2(OC1)OC1C(O)C3C4CCC5CC(OC6OC(CO)C(OC7OC(CO)C(O)C(OC8OCC(O)C(O)C8O)C7OC7OC(CO)C(O)C(OC8OC(CO)C(O)C(O)C8O)C7O)C(O)C6O)C(O)CC5(C)C4CCC3(C)C1C2C` (centres undefined) yielded a TGI (NCI-H226 lung) of 3.33 µM, a TGI (MDA-MB-435) of 30 µM and a TGI (HOP-92 NSCLC) of 26.5 µM. For the same molecule, the TGI (SK-OV-3 ovarian) was 5.57 µM, the TGI (NCI-H460 lung) was 3.35 µM and the TGI (SF-268 CNS) was 4.85 µM. The TGI (SK-MEL-28 melanoma) was greater than 100 µM, the TGI (DU-145 prostate) was 4.63 µM and the TGI (HS 578T breast) was 4.5 µM.
`Clc1cc(Cl)ncn1` was tested, and the TGI (NCI-H226 lung) was greater than 100 µM, the TGI (MDA-MB-435) was greater than 100 µM and the TGI (HOP-92 NSCLC) was greater than 100 µM. It also gave a TGI (SK-OV-3 ovarian) greater than 100 µM, a TGI (NCI-H460 lung) greater than 100 µM and a TGI (SF-268 CNS) greater than 100 µM. The TGI (SK-MEL-28 melanoma) was greater than 100 µM, the TGI (DU-145 prostate) was greater than 100 µM and the TGI (HS 578T breast) was greater than 100 µM.
Molecule `CC(C)Oc1cccc(N2C(Nc3ccccc3)=Nc3ccncc3S2(=O)=O)c1` has a TGI (NCI-H226 lung) of 83.2 µM, a TGI (MDA-MB-435) of 57 µM and a TGI (HOP-92 NSCLC) of 49 µM. For the same molecule, the TGI (SK-OV-3 ovarian) was greater than 100 µM, the TGI (NCI-H460 lung) was greater than 100 µM and the TGI (SF-268 CNS) was greater than 100 µM. It also gave a TGI (SK-MEL-28 melanoma) of 17.2 µM, a TGI (DU-145 prostate) greater than 100 µM and a TGI (HS 578T breast) greater than 100 µM.
In the case of `Cc1c([C@H](C)[C@@H]2NC[C@@H](C)C[C@H]2O)ccc2c1C[C@H]1[C@H]2CC=C2C[C@@H](O)CC[C@@]21C`, the TGI (NCI-H226 lung) is reported as 38.1 µM, the TGI (MDA-MB-435) is reported as 26.4 µM and the TGI (HOP-92 NSCLC) is reported as 23.3 µM. For the same molecule, the TGI (SK-OV-3 ovarian) was 76.9 µM, the TGI (NCI-H460 lung) was 41.4 µM and the TGI (SF-268 CNS) was greater than 100 µM. The TGI (SK-MEL-28 melanoma) was 37.5 µM, the TGI (DU-145 prostate) was greater than 100 µM and the TGI (HS 578T breast) was 66.6 µM.
In the case of `Cc1cc(-c2nc3cccc(O)c3s2)ccc1N`, the TGI (NCI-H226 lung) is reported as greater than 100 µM, the TGI (MDA-MB-435) is reported as 41.9 µM and the TGI (HOP-92 NSCLC) is reported as greater than 100 µM. It also gave a TGI (SK-OV-3 ovarian) greater than 100 µM, a TGI (NCI-H460 lung) greater than 100 µM and a TGI (SF-268 CNS) greater than 100 µM. The TGI (SK-MEL-28 melanoma) was greater than 100 µM, the TGI (DU-145 prostate) was greater than 100 µM and the TGI (HS 578T breast) was 46.4 µM.
For `CCCCCCCCOc1ccc(/C=C/C2=[N+](CCO)CCO2)cc1`, the TGI (NCI-H226 lung) was 12.3 µM, the TGI (MDA-MB-435) was 14.5 µM and the TGI (HOP-92 NSCLC) was 6.51 µM. For the same molecule, the TGI (SK-OV-3 ovarian) was 11.9 µM, the TGI (NCI-H460 lung) was 10.5 µM and the TGI (SF-268 CNS) was 20.5 µM. It also gave a TGI (SK-MEL-28 melanoma) of 9.12 µM, a TGI (DU-145 prostate) of 16.4 µM and a TGI (HS 578T breast) of 17.2 µM.
